Measurements reported in patent US7323485B2, “4-(substituted cycloalkylmethyl) imidazole-2-thiones, 4-(substituted cycloalkenylmethyl) imidazole-2-thiones, 4-(substituted cycloalkylmethyl) imidazol-2-ones and 4-(substituted cycloalkenylmethyl) imidazol-2-ones and related compounds” (Allergan, Inc., priority 2002, dated 2008).
Where two headings read alike, the source gives them in different places.

Experiments:
[1] = test system: rats with ligated L5 and L6 spinal nerves; assay: Chung model of neuropathic pain (tactile allodynia, von Frey hairs); format: in vivo; settings: Rattus norvegicus, 0.5 h, 30 min following drug administration, read-out: % Pain Reversal ± SEM; for inhibition in vivo at 0.001 mg/kg: 1 μg/kg i.p.; for inhibition in vivo at 0.003 mg/kg: 3 μg/kg i.p.; for inhibition in vivo at 0.3 mg/kg: 300 μg/kg p.o.
Excerpt: A model in accordance with Kim and Chung 1992, Pain […], pp 355-363 (Chung model), for chronic pain (in particular peripheral neuropathy) involves the surgical ligation of the L5 (and optionally the L6) spinal nerves on one side in experimental animals. Rats recovering from the surgery gain weight and display a level of general activity similar to that of normal rats. However, these rats develop abnormalities of the foot, wherein the hindpaw is moderately everted and the toes are held together. More importantly, the hindpaw on the side affected by the surgery appears to become sensitive to pain from low-threshold mechanical stimuli, such as that producing a faint sensation of touch in a human, within about 1 week following surgery. This sensitivity to normally non-painful touch is called “tactile allodynia” and lasts for at least two months. The response includes lifting the affected hindpaw to escape from the stimulus, licking the paw and holding it in the air for many seconds. None of these responses is normally seen in the control group.
Rats are anesthetized before surgery. The surgical site is shaved and prepared either with betadine or Novacaine. Incision is made from the thoracic vertebra Xlll down toward the sacrum. Muscle tissue is separated from the spinal vertebra (left side) at the L4-S2 levels. The L6 vertebra is located and the transverse process is carefully removed with a small rongeur to expose the L4-L6 spinal nerves. The L5 and L6 spinal nerves are isolated and tightly ligated with 6-0 silk thread. The same procedure is done on the right side as a control, except no ligation of the spinal nerves is performed.
A complete hemostasis is confirmed, then the wounds are sutured. A small amount of antibiotic ointment is applied to the incised area, and the rat is transferred to the recovery plastic cage under a regulated heat-temperature lamp. On the day of the experiment, at least seven days after the surgery, typically six rats per test group are administered the test drugs by intraperitoneal (i.p.) injection or oral gavage. For i.p. injection, the compounds are formulated in approximately 10 to 50% DMSO and given in a volume of 1 ml/kg body weight.
Tactile allodynia is measured prior to and 30 minutes after drug administration using von Frey hairs that are a series of fine hairs with incremental differences in stiffness. Rats are placed in a plastic cage with a wire mesh bottom and allowed to acclimate for approximately 30 minutes. The von Frey hairs are applied perpendicularly through the mesh to the mid-plantar region of the rats' hindpaw with sufficient force to cause slight buckling and held for 6-8 seconds. The applied force has been calculated to range from 0.41 to 15.1 grams. If the paw is sharply withdrawn, it is considered a positive response. A normal animal will not respond to stimuli in this range, but a surgically ligated paw will be withdrawn in response to a 1-2 gram hair. The 50% paw withdrawal threshold is determined using the method of Dixon, W. J., Ann. Rev. Pharmacol. Toxicol. 20:441-462 (1980). The post-drug threshold is compared to the pre-drug threshold and the percent reversal of tactile sensitivity is calculated based on a normal threshold of 15.1 grams. The results are expressed in percent (%) MPE, where the MPE value reflects the percentage reversal of pain threshold to that of a normal animal (100%). Table 3 below indicates results of this test with Compounds 1, 7 and 29 of the invention, administered i.p. and in oral doses.

male Sprague-Dawley rats = assay: Sedative activity (exploratory behavior); format: in vivo, rat; settings: intraperitoneally, up to a dose of 1 mg/kg
Procedure: To test sedation, six male Sprague-Dawley rats are given up to 3 mg/kg of the test compound in a saline or DMSO vehicle by intraperitoneal injection (i.p.). Sedation is graded 30 minutes following administration of the drug by monitoring locomotor skills as follows.
The Sprague-Dawley rats are weighed and 1 ml/kg body weight of an appropriate concentration (ie. 3 mg/ml for a final dose of 3 mg/kg) drug solution is injected intraperitoneally. Typically the test compound is formulated in approximately 10 to 50% DMSO. The results are compared to controls that are injected with 1 ml/kg saline or 10 to 50% DMSO. Rat activity is then determined 30 minutes after injection of the drug solution. Rats are placed in a dark covered chamber and a digicom analyzer (Omnitech Electronic) quantitates their exploratory behavior for a five-minute period. The machine records each time the rat interrupts an array of 32 photoelectric beams in the X and Y orientation.

[2] = molecular target: T1, alpha2B adrenergic receptors (Homo sapiens, UniProt P18089); assay: Receptor Selection and Amplification Technology (RSAT) assay, alpha2B; format: cell-based; settings: for EC50: NA = not active at concentrations less than 10 micromolar, read-out: Alpha 2B EC50; for Alpha 2B intrinsic activity: fraction of maximal effect of standard full agonist brimonidine (UK14304)
T1 construct: expressed in transfected cells; host or cells: NIH-3T3
T1 sequence (P18089 1-450): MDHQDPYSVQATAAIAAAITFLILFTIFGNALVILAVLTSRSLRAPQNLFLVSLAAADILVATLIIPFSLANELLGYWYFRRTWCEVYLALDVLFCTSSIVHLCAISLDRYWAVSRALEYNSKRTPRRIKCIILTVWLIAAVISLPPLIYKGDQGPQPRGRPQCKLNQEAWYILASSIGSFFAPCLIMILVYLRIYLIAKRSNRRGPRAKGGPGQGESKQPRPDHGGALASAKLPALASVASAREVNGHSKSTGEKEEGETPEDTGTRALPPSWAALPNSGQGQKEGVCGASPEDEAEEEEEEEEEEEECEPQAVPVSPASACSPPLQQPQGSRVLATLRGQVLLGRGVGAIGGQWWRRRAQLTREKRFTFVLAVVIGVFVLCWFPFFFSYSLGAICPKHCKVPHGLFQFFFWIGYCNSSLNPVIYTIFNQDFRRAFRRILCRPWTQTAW
Summary of the method: (§1)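 NIH-3T3 cells cotransfected with receptor, Gq/i5 and β-galactosidase were incubated with drugs in triplicate for 72-96 hr at 37 °C; proliferation read as β-galactosidase activity (o-nitrophenyl-β-D-galactopyranoside, OD 420 nm).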

[3] = molecular target: T2, alpha2C adrenergic receptors (Homo sapiens, UniProt P18825); assay: Receptor Selection and Amplification Technology (RSAT) assay, alpha2C; format: cell-based; settings: for EC50: NA = not active at concentrations less than 10 micromolar, read-out: Alpha 2C EC50; for Alpha 2C intrinsic activity: fraction of maximal effect of standard full agonist brimonidine (UK14304)
T2 construct: expressed in transfected cells; host or cells: NIH-3T3
T2 sequence (P18825 1-462): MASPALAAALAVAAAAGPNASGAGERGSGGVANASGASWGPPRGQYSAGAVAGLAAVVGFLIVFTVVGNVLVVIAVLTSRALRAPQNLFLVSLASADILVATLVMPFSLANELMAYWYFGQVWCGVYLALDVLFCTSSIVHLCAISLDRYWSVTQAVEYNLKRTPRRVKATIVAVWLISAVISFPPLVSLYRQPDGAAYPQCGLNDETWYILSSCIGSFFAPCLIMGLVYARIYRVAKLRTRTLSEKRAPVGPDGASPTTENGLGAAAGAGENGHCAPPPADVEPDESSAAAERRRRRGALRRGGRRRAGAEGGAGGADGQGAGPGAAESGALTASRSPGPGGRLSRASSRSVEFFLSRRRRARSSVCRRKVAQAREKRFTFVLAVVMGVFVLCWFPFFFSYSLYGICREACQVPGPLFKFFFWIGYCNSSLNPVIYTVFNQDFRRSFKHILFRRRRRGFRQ
Summary of the method: as §1

| Structure (SMILES) | inhibition in vivo at 0.01 mg/kg ([1]; ip, 10 μg/kg i.p.) [%] | inhibition in vivo at 0.03 mg/kg ([1]; ip, 30 μg/kg i.p.) [%] | inhibition in vivo at 0.1 mg/kg ([1]; ip, 100 μg/kg i.p.) [%] | EC50 [2] [nM] | Alpha 2B intrinsic activity [2] | EC50 [3] [nM] | Alpha 2C intrinsic activity [3] | also measured |
| --- | --- | --- | --- | --- | --- | --- | --- | --- |
| O=c1[nH]cc(CC2CCc3cc(F)ccc32)[nH]1 (stereo not drawn) [Compound 49, 4-(5-fluoro-indan-1-ylmethyl)-1,3-dihydro-imidazol-2-one] | 39 ± 7.7 | 72 ± 8.2 | 80 ± 6.5 | – | – | – | – | inhibition in vivo at 0.001 mg/kg ([1]; ip): 2.3 ± 1.3%; inhibition in vivo at 0.003 mg/kg ([1]; ip): 23 ± 3.8%; inhibition in vivo at 0.03 mg/kg ([1]; po, 30 μg/kg p.o.): 43 ± 7.1%; inhibition in vivo at 0.1 mg/kg ([1]; po, 100 μg/kg p.o.): 68 ± 4.8%; inhibition in vivo at 0.3 mg/kg ([1]; po): 74 ± 6.8%; sedative effect (male Sprague-Dawley rats): no sedative effect |
| S=c1[nH]cc(CC2CCC3=C2CCC3)[nH]1 (stereo not drawn) [Compound 1, 4-(1,2,3,4,5,6-hexahydro-pentalen-1-ylmethyl)-1,3-dihydro-imidazole-2-thione] | – | 9 ± 2 | 13 ± 2 | – | – | – | – | inhibition in vivo at 1 mg/kg ([1]; ip, 1000 μg/kg i.p.): 44 ± 7%; inhibition in vivo at 0.1 mg/kg ([1]; po, 100 μg/kg p.o.): 29 ± 5% |
| CC1=C(C)C(Cc2c[nH]c(=O)[nH]2)CC1 (stereo not drawn) [Compound 44, 4-(2,3-dimethyl-cyclopent-2-enylmethyl)-1,3-dihydro-imidazol-2-one] | 46 ± 9.1 | 62 ± 9.6 | 82 ± 5.8 | – | – | – | – | inhibition in vivo at 0.001 mg/kg ([1]; ip): 0.5 ± 2.9%; inhibition in vivo at 0.003 mg/kg ([1]; ip): 24 ± 4.6% |
| O=c1[nH]cc(CC2CCC3=C2CCC3)[nH]1 (stereo not drawn) [Compound 41, 4-(1,2,3,4,5,6-Hexahydro-pentalen-1-ylmethyl)-1,3-dihydro-imidazol-2-one] | 3 ± 1.6 | 71 ± 2.8 | 13 ± 1 | – | – | – | – | – |
| O=c1[nH]cc(C[C@H]2CCc3cc(F)ccc32)[nH]1 [Compound 61, R-(+)-4-(5-fluoro-indan-1-ylmethyl)-1,3-dihydro-imidazol-2-one] | – | – | – | – | – | – | – | sedative effect (male Sprague-Dawley rats): no sedative effect |
| S=c1[nH]cc(CC2CCc3sccc3C2)[nH]1 (stereo not drawn) [Compound 29, 4-(4,5,6,7-tetrahydro-benzo[b]thiophen-5-ylmethyl)-1,3-dihydro-imidazole-2-thione] | 17 ± 3 | 61 ± 11 | 14 ± 2 | – | – | – | – | – |
| CCC1=C(c2ccc(F)cc2)C(Cc2c[nH]c(=S)[nH]2)CC1 (stereo not drawn) | – | – | – | 103 | 0.97 | 40 | 0.52 | – |
| CC1=C(c2ccc(F)cc2)C(Cc2c[nH]c(=S)[nH]2)CCC1 (stereo not drawn) | – | – | – | 22.5 | 0.97 | 34.5 | 0.82 | – |
| S=c1[nH]cc(CC2CCCc3ccccc32)[nH]1 (stereo not drawn) | – | – | – | 24 | 0.93 | 137 | 0.42 | – |
| S=c1[nH]cc(CC2CCc3cc(Br)ccc32)[nH]1 (stereo not drawn) | – | – | – | 158 | 0.85 | – | 0.62 | – |
| CC1=C(c2cc(F)cc(F)c2)C(Cc2c[nH]c(=S)[nH]2)CC1 (stereo not drawn) | – | – | – | 115 | 0.89 | 47 | 1.11 | – |
| O=[N+]([O-])c1cccc(C2=CCCC2Cc2c[nH]c(=S)[nH]2)c1 (stereo not drawn) | – | – | – | > 10000 | – | 2510 | – | – |
| S=c1[nH]cc(CC2CCc3ccccc32)[nH]1 (stereo not drawn) [Compound 7, 4-indan-1-ylmethyl-1,3-dihydro-imidazole-2-thione] | 58 ± 8 | 85 ± 6 | 89 ± 7 | – | – | – | – | inhibition in vivo at 0.001 mg/kg ([1]; ip): 1 ± 1%; inhibition in vivo at 0.003 mg/kg ([1]; ip): 23 ± 4%; inhibition in vivo at 0.01 mg/kg ([1]; po, 10 μg/kg p.o.): 1 ± 1%; inhibition in vivo at 0.03 mg/kg ([1]; po, 30 μg/kg p.o.): 56 ± 10%; inhibition in vivo at 0.1 mg/kg ([1]; po, 100 μg/kg p.o.): 58 ± 8%; inhibition in vivo at 0.3 mg/kg ([1]; po): 61 ± 6% |
| O=C1C2=C(CCC1Cc1c[nH]c(=S)[nH]1)NCCC2 (stereo not drawn) | – | – | – | 755 | 0.98 | 2260 | 0.88 | – |
| Fc1ccc(C2=C(C3CC3)CCC2Cc2c[nH]c(=S)[nH]2)cc1 (stereo not drawn) | – | – | – | 32 | 0.9 | 9 | 0.45 | – |
